Data published in patent publication US20020192262A1, “1'-Acetoxychavicol acetate for tuberculosis treatment” (National Science and Technology Development Agency, priority 2001, published 2002).

Test system: 30 clinical strains of M. tuberculosis isolated from patients in Thailand
Test: Microplate Alamar Blue assay, clinical strains
Assay type: cell-based
Settings: Mycobacterium tuberculosis, including isoniazid and/or rifampin resistant strains, read-out: MICs against clinical strains of M. tuberculosis

C=CC(OC(C)=O)c1ccc(OC(C)=O)cc1 (stereo not shown) [1′-acetoxychavicol acetate, 1′-Acetoxychavicol acetate]
MIC: 0.1 to 0.5 µg/mL
